Test results: ChEMBL document CHEMBL5696442, “Discovery of type II inhibitors of TGFβ-activated kinase 1 (TAK1) and mitogen-activated protein kinase kinase kinase kinase 2 (MAP4K2)” (J Med Chem, 2015)
Activity calls are given as the source filed them. The calls are words filed in the database; no cut-off is given here.

Columns and labels:
[1] = biological target: Rho-associated protein kinase 1 (Homo sapiens) (UniProt Q13464); experiment: Inhibition of ROCK1 in human Huh-7 cells at 10 uM by KiNativ Profiling analysis relative to control; type: cell-based
[2] = biological target: T1, Serine/threonine-protein kinase Nek1 (Homo sapiens) (UniProt Q96PY6); experiment: Inhibition of NEK1 K2 labeling site in human Huh-7 cells at 10 uM by KiNativ Profiling analysis relative to control; type: cell-based
T1 sequence (whole entry): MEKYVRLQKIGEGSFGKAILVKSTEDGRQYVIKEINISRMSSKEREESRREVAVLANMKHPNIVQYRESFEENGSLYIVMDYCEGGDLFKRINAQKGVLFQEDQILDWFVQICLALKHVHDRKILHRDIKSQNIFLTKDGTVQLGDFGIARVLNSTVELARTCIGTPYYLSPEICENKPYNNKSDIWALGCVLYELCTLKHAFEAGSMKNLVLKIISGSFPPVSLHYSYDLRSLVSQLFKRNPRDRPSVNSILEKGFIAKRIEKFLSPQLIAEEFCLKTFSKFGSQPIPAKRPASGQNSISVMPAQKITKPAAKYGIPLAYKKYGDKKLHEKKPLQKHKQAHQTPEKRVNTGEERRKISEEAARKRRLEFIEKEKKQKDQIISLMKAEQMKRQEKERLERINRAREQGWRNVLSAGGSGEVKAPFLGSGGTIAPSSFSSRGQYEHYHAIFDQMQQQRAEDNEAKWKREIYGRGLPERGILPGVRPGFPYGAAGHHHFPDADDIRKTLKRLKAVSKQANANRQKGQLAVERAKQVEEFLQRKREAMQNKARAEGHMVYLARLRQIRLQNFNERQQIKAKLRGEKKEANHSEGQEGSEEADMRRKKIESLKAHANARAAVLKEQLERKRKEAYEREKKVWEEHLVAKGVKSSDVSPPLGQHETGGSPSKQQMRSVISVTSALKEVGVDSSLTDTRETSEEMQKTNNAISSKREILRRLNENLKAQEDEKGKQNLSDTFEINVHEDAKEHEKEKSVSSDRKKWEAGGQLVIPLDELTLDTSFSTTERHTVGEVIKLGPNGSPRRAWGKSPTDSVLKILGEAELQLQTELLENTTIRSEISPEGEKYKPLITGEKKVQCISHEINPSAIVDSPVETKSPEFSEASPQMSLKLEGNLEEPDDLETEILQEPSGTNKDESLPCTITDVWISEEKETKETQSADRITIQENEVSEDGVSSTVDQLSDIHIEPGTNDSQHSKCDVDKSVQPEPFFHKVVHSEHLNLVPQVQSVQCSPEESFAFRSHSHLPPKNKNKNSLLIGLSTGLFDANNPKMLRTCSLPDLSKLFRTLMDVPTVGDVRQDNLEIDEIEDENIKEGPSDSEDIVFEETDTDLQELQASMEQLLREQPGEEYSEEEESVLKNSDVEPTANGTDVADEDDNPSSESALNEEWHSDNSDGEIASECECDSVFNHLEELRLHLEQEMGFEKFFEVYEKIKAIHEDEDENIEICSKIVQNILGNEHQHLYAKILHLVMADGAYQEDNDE

[3] = system: Epidermal growth factor receptor (Homo sapiens), P00533 [G719S]; experiment: Inhibition of EGFR G719S mutant (unknown origin) at 10 uM by Ambit Kinomescan binding assay relative to control
[4] = biological target: Ribosomal protein S6 kinase alpha-2 (Homo sapiens) (UniProt Q15349); experiment: Inhibition of N-terminal RPS6KA2 kinase domain 1 (unknown origin) at 10 uM by Ambit Kinomescan binding assay
[5] = biological target: Serine/threonine-protein kinase 26 (Homo sapiens) (UniProt Q9P289); experiment: Inhibition of MST4 K1 labeling site in human Huh-7 cells at 1 uM by KiNativ Profiling analysis relative to control; type: cell-based
RAW = experiment: Inhibition of LPS induced JNK1/2 phosphorylation in mouse RAW cells preincubated for 1 hr followed by LPS stimulation and measured after 30 mins by Western blot analysis; type: functional, cell-based; conditions: dose 0.01-10 µM
[6] = biological target: MAP kinase-activated protein kinase 5 (Homo sapiens) (UniProt Q8IW41); experiment: Inhibition of MAPKAPK5 (unknown origin) at 10 uM by Ambit Kinomescan binding assay
[7] = biological target: Serine/threonine-protein kinase SMG1 (Homo sapiens) (UniProt Q96Q15); experiment: Inhibition of SMG1 ATP labeling site harbouring DTVTIHSVGGTITILPTKTKPK in human A-375 cells at 0.05 uM by KiNativ Profiling analysis relative to control; type: cell-based
[8] = biological target: T2, Receptor-interacting serine/threonine-protein kinase 4 (Homo sapiens) (UniProt P57078); experiment: Inhibition of ANKRD3 Lys1 labeling site in human A-375 cells at 5 uM by KiNativ Profiling analysis relative to control; type: cell-based
T2 sequence (whole entry): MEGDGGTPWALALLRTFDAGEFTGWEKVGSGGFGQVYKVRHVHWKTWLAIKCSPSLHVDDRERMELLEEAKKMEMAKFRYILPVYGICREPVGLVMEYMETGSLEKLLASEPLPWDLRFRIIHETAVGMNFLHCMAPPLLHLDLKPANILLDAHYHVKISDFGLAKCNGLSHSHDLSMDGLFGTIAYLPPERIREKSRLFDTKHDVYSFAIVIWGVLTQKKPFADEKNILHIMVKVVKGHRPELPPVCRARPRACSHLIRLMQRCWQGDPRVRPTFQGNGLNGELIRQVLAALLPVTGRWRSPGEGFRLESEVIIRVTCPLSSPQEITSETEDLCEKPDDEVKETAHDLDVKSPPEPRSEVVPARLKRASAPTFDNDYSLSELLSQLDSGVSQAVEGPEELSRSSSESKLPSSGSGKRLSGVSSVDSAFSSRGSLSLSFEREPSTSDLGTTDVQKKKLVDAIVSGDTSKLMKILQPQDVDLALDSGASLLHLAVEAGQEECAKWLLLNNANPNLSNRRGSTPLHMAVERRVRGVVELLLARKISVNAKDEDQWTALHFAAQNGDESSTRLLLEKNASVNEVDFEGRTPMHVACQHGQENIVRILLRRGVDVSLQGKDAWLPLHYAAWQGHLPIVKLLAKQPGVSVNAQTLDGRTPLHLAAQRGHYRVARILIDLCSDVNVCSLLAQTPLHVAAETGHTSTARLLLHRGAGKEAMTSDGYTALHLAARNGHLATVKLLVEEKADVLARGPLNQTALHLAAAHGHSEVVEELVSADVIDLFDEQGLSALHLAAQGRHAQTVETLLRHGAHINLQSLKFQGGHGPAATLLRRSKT

[9] = biological target: Phosphatidylinositol 4-kinase alpha (Homo sapiens) (UniProt P42356); experiment: Inhibition of PI4KA ATP labeling site in human A-375 cells at 0.5 uM by KiNativ Profiling analysis relative to control; type: cell-based
[10] = biological target: STE20/SPS1-related proline-alanine-rich protein kinase (Homo sapiens) (UniProt Q9UEW8); experiment: Inhibition of STLK3 Lys2 labeling site in human Huh-7 cell lysate at 1 uM by KiNativ Profiling analysis relative to control; type: subcellular

Chain of Serine/threonine-protein kinase SMG1 (Homo sapiens) (Q96Q15 whole entry): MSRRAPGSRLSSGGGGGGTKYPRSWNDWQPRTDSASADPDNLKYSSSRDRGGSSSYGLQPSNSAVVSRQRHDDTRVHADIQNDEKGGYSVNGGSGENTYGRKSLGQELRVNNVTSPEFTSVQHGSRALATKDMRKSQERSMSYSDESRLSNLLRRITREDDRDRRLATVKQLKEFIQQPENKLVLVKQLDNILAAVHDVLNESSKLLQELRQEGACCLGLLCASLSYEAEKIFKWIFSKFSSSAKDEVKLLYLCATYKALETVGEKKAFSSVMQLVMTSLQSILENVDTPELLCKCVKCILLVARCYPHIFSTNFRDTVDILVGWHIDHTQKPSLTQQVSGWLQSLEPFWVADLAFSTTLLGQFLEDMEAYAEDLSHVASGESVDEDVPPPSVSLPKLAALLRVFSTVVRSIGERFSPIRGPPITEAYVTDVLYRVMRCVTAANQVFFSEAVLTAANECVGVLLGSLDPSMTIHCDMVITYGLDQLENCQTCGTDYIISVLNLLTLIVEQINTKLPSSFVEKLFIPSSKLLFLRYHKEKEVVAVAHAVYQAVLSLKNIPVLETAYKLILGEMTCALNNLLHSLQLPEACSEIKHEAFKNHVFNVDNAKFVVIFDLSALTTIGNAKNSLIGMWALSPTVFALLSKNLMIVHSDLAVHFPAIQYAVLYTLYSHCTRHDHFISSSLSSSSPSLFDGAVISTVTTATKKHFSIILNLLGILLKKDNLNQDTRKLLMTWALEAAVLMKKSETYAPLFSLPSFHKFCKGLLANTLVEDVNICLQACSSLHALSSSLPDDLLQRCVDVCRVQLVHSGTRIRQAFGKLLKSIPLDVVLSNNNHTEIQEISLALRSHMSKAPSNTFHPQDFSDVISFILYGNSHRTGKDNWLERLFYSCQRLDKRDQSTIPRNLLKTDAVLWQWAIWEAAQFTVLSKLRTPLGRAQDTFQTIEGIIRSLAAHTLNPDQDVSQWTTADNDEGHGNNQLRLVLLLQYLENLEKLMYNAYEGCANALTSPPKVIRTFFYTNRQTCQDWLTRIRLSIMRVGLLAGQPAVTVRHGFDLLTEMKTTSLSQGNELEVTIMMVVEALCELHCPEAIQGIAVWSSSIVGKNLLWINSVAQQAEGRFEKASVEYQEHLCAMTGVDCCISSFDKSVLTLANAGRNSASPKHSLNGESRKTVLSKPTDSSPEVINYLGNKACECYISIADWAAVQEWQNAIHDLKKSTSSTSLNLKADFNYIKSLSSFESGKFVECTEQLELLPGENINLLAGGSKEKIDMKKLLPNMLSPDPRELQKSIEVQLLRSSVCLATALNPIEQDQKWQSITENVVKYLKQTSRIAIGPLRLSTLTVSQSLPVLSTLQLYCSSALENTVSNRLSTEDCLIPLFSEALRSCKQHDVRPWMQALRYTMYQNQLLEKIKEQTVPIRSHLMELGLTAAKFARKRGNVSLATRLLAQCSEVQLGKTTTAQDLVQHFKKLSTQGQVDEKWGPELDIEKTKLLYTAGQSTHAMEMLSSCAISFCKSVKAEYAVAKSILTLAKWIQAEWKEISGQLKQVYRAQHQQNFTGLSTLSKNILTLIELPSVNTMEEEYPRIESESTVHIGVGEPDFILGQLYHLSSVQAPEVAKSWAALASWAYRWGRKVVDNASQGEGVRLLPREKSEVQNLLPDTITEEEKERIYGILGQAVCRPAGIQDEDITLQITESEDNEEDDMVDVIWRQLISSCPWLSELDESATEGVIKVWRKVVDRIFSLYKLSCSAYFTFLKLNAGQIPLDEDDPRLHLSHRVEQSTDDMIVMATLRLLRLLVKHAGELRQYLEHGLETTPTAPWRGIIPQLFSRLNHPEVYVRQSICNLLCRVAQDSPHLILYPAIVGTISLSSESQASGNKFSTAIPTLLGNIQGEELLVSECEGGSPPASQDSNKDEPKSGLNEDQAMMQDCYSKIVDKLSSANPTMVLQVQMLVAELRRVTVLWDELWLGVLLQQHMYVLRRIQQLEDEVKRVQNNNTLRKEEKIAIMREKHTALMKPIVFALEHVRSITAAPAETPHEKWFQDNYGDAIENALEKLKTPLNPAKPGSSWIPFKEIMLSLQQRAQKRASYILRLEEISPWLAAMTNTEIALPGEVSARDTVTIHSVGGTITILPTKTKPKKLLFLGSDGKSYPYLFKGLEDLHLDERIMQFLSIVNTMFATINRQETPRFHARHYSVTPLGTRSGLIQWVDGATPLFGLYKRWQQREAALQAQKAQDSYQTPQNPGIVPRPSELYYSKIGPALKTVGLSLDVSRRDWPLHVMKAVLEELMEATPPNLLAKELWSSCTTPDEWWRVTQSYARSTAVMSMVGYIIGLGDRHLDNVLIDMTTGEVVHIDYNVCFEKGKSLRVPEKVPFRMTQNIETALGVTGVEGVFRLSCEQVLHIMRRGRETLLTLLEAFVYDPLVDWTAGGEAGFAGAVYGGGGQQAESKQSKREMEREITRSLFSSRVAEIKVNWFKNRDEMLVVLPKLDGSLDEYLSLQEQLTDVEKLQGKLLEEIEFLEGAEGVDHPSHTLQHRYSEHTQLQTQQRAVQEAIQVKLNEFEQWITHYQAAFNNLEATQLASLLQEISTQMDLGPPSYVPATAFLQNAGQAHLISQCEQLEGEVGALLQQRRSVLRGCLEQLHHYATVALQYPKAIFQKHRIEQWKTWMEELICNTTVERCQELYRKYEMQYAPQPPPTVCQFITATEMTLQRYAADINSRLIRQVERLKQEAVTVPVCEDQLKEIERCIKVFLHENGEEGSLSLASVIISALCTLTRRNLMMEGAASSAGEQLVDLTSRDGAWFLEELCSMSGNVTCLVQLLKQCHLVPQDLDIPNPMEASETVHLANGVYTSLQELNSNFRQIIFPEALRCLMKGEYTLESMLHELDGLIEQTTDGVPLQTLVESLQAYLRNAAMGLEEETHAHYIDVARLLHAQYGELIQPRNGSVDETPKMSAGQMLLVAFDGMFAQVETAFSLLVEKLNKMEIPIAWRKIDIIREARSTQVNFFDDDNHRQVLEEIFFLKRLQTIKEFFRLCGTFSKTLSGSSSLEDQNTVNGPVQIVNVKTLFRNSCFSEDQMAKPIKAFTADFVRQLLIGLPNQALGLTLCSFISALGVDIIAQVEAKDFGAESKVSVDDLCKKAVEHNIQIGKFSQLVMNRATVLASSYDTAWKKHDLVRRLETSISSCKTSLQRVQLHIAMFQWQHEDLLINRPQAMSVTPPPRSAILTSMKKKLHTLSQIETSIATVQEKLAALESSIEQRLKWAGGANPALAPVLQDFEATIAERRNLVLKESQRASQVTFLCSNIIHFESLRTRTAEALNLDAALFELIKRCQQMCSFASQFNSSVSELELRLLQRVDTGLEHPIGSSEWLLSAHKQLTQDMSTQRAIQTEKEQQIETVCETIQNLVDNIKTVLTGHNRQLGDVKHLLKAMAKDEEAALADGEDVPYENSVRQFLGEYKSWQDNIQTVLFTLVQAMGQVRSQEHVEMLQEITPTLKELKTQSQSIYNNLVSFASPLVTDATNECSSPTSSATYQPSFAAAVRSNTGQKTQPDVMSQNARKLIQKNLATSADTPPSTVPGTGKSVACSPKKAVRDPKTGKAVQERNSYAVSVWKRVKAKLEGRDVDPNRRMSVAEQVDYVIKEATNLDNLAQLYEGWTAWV
Chain of Serine/threonine-protein kinase 26 (Homo sapiens) (Q9P289 2-416 limits assumed): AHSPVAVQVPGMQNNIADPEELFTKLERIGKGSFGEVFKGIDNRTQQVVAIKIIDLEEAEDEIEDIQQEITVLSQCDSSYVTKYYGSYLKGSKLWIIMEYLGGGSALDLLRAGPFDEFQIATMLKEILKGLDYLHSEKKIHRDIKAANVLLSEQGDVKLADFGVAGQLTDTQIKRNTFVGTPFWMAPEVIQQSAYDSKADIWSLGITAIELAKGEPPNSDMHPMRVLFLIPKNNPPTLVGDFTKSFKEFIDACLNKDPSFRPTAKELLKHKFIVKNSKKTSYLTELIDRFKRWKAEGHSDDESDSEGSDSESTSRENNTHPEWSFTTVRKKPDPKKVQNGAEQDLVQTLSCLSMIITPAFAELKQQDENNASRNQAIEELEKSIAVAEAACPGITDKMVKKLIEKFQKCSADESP
Chain of Ribosomal protein S6 kinase alpha-2 (Homo sapiens) (Q15349 whole entry, the tested form may be a part): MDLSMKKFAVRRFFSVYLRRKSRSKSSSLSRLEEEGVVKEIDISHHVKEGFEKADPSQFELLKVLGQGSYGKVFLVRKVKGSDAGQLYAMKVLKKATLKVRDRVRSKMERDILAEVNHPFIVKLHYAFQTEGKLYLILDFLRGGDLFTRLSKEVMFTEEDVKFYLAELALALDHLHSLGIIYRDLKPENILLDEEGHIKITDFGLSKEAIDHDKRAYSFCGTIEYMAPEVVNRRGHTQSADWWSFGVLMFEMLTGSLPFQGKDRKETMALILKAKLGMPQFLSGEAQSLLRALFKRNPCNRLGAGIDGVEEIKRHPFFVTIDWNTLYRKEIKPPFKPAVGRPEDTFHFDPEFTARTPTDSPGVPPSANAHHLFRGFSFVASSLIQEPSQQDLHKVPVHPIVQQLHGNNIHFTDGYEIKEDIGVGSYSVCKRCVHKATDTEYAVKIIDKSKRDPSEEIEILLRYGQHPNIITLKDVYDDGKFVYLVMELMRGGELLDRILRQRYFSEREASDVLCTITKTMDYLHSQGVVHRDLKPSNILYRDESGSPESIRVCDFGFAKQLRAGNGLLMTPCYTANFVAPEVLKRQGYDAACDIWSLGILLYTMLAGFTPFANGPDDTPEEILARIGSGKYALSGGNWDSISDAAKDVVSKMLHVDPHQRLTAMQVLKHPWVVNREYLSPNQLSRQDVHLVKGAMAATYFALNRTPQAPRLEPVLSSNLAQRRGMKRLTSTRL

In the case of CCN1CCN(Cc2ccc(NC(=O)c3ccc(C)c(Oc4ccnc5[nH]ccc45)c3)cc2C(F)(F)F)CC1, the inhibition [1] is reported as 7.5%, the inhibition [2] is reported as -4.4% and the inhibition [3] is reported as 14%. The inhibition [4] was “inactive”, the inhibition [5] was 5.3% and the inhibition (RAW) was “Dose-Dependent Effect”. The inhibition [6] was “inactive” and the inhibition [7] was 2.3%.

Work on CCN1CCN(Cc2ccc(NC(=O)c3ccc(C)c(/C=C/c4cnc5[nH]ccc5c4OC)c3)cc2C(F)(F)F)CC1 yielded an inhibition [8] of 17% and an inhibition [9] of -8%.

CNc1cc(Oc2cc(C(=O)Nc3cc(N4CCN(C)CC4)cc(C(F)(F)F)c3)ccc2C)ncn1 was tested, and the inhibition [10] was 9.8%.
